US8461118B2, “Lytic peptides having anti-proliferative activity against prostate cancer cells” (Tuskegee University, priority 2011, dated 2013)
“And” between values parts separate entries of the source, which are not always exact repeats. Equal entries are not always repeated. “Also recorded” adds a separate entry of the source. Ends that are not written are not given here.

Assays:
LNCaP cells = experiment: MTT cytotoxicity assay, LNCaP prostate cancer cells; format: cell-based, human; details: 72 h exposure
Source text: (§1) To evaluate the efficacy of these peptides in inhibiting prostate cancer, a prostate cancer progression model was followed that utilized several different cell lines in various experiments as described herein to form this model, including the known cell lines DU-145, PC-3, LNCaP, and hPrEC. […] This cell line has both LHRH-R and epidermal growth factor receptors (“EGFR”), and produces the EGFR ligands, transforming growth factor α (TGF-α) and EGF. The androgen-unresponsive PC-3 cell line is derived from a human bone metastasis of a grade IV prostatic adenocarcinoma, while the androgen-responsive LNCaP cell line is derived from a human lymph node metastasis. […]
(§2) In the various experiments described below, unless otherwise noted, the cytotoxicity of the various peptides when measured was evaluated using the methylthiazol tetrazolium (“MTT”) assay (Sigma Aldrich, MO), which determines the number of viable cells from the formazan crystals produced by metabolic activity. […] The quantity of solublized formazan per well was determined by a Spectromax plate reader at 540 nm (Molecular Devices, CA). […]

[1] = test system: normal primary hPrEC cells; experiment: MTT cytotoxicity on normal primary prostate epithelial cells; format: cell-based, human; details: 0-20 μM
Source text: as §1, §2

DU-145 cells = experiment: MTT cytotoxicity assay, DU-145 prostate cancer cells; format: cell-based, human; details: 72 h exposure
Source text: as §1, §2

PC-3 cells [2] = format: cell-based, human; details: for IC50: MTT, 72 h exposure
Source text: To evaluate the efficacy of these peptides in inhibiting prostate cancer, a prostate cancer progression model was followed that utilized several different cell lines in various experiments as described herein to form this model, including the known cell lines DU-145, PC-3, LNCaP, and hPrEC. […] This cell line has both LHRH-R and epidermal growth factor receptors (“EGFR”), and produces the EGFR ligands, transforming growth factor α (TGF-α) and EGF. The androgen-unresponsive PC-3 cell line is derived from a human bone metastasis of a grade IV prostatic adenocarcinoma, while the androgen-responsive LNCaP cell line is derived from a human lymph node metastasis. For all experiments described herein, normal primary human prostate epithelial cells (“hPrEC”) were obtained from Clonetics (Lonza Inc., Walkersville, Md.), while the other cell lines were purchased from ATCC and maintained in T-media (Gibco Invitrogen, CA) supplemented with 10% fetal bovine serum (FBS) (Gibco Invitrogen, CA) and 1% penicillin/streptomycin (Cellgro Mediatech, Inc., VA).
In the various experiments described below, unless otherwise noted, the cytotoxicity of the various peptides when measured was evaluated using the methylthiazol tetrazolium (“MTT”) assay (Sigma Aldrich, MO), which determines the number of viable cells from the formazan crystals produced by metabolic activity. The cells in such cytotoxicity experiments were plated in 96-well plates at 2.5×10^3 cells/well, and were allowed to reattach overnight. They were then exposed to the test lytic peptides (1-20 μM) for 72 h. The MTT reagent [3-(4,5-dimethylthiazol-2-yl)-2,5-diphenyltetrazolium bromide], 50 μL) in T-media was added to each well, and the plates were incubated for 2 h. The supernatant media was aspirated, and formazan crystals were dissolved with […] dimethylsulfoxide per well at 37° C. for 10 min. The quantity of solublized formazan per well was determined by a Spectromax plate reader at 540 nm (Molecular Devices, CA). Each assay was performed at least three times with six replicates per data point.
For all experiments, unless otherwise noted, statistics were performed with Microsoft Excel. Independent Student's t-test was utilized to determine statistical differences between experimental subjects and control subjects. The IC50 values were derived through regression analysis of the continuous data by cubic spline interpolation utilizing Aabel™ (Gigawiz Ltd. Co., OK), a software application that integrates statistics (inferential and multivariate) with graphical representation.
To determine the effectiveness of JCH and JC21 with or without mLHRH conjugates, androgen-independent, highly metastatic PC-3 cells were exposed to the peptides in increasing concentrations (0-20 μM).
For this experiment, IC50 values were determined by interpolation of three individual experiments performed in quadruplicate at 50% cell death. All values were reported in the table of FIG. 2A were determined to be significant compared to control p<0.001. In the table, “n.d.” serves as an abbreviation for “not determined,” as tests were not conducted for JHC and JC21 against LNCaP and DU-145.

[3] = test system: GFP-HS-27a bone marrow stromal cells; experiment: Co-culture differential fluorescence, GFP-HS-27a bone marrow stromal cells; format: cell-based; details: for relative intensity of GFP-HS-27a cells: JCHmLHRH 5 μM or JC21mLHRH 8 μM, 12 hr
Protocol: In the various experiments described below, unless otherwise noted, co-cultures were prepared and utilized as described by Yates et al. (see Yates C, Shepard C R, Papworth G, Dash A, Beer Stolz D, Tannenbaum S, et al., Novel three-dimensional organotypic liver bioreactor to directly visualize early events in metastatic progression, Adv Cancer Res, 2007; 97:225-46; and Yates C, Shepard C R, Stolz D B, Wells A., Co-culturing human prostate carcinoma cells with hepatocytes leads to increased expression of E-cadherin, Br J Cancer 2007; 96:1246-52), with certain modifications as noted herein. The co-cultures consisted of 50,000 cells/cm^2 of GFP-HS-27a bone marrow stromal cells and 2000 cells/cm^2 of red fluorescent protein PC-3 prostate cancer cells (“RFP-PC-3”), and were maintained in Dulbecco's modified Eagle medium, and cell death was monitored in real-time (as described above) by differential fluorescence. To determine relative intensity, the total intensity area of each image as well as the threshold intensity for each channel was measured utilizing Metamorph Imaging Software (Molecular Devices, Inc., CA), and the significance between the two intensities was then analyzed statistically. All quantitative data was normalized to each control image.
For this experiment, RFP-PC-3 cell cultures, GFP-HS-27a cell cultures, and RFP-PC-3/GFP-HS-27a cell co-cultures were exposed to JCHmLHRH (5 μM) and JC21mLHRH (8 μM), and the various cultures were monitored by differential immunofluorescence over 12 h period. Images comprising black and white photographs of the cultures at the 0 hr, 6 hr, and 12 hr marks following administration of JCHmLHRH and JC21mLHRH are shown in FIG. 5C and FIG. 5D, respectively. Two trials of this experiment were conducted with similar results, and the photographs of FIG. 5C and FIG. 5D are illustrative of the results of both trials. […] Further, the RFP-PC-3/GFP-HS-27a co-culture images at the 6 hr and 12 hr marks largely resemble the corresponding time images for GFP-HS-27a cultures in relative intensity.
FIG. 5E in turn provides a chart showing the relative intensity of total areas measured under differential fluorescence of the co-culture cells after they were exposed to JCHmLHRH and JC21mLHRH in this experiment.

PC-3 cells [4] = experiment: Real-time imaging, trypan blue exclusion and Annexin V in PC-3 cells; format: cell-based, human
Protocol: In the various experiments described below, unless otherwise noted, real-time imaging of cell cultures was performed utilizing an Olympus DSU (Disk Scanning Units) Confocal microscope (Olympus America Inc., PA). The subject cells were maintained in 5% CO2 at 37° C. in an incubation chamber (Pathology Devices, Inc., MD). Images were taken every 15 min and processed utilizing MetaMorph Imaging Software (Molecular Devices, CA).
Although the mechanism associated with the anti-tumor activity of lytic peptides has not been defined, without wishing to be limited to any mechanism of action, it is believed that direct interaction of the present lytic peptides with the cell membrane causes the electrochemical potential to collapse, resulting in cell death. To investigate the potential mechanism of action, a qualitative approach utilizing real-time imaging was employed in conjunction with monitoring of a classic marker of apoptosis, Annexin V. Since the mechanism of death was unknown, real-time imaging was employed for cells in a 5% CO2 and temperature-regulated (37° C.) chamber to monitor the effects of JC21mLHRH and JCHmLHRH on PC-3 cellular responses.
PC-3 cell cultures were exposed to JCHmLHRH (5 μM) or JC21mLHRH (8 μM) and imaged continuously for 24 h with time-lapse microscopy. FIG. 5A comprises eight black and white photographs depicting real-time images of PC-3 cells after treatment with lytic peptides JCHmLHRH (5 μM) or JC21mLHRH (8 μM) taken with time-lapse microscopy under 5% CO2 and 37° C. at 0, 3, 6, and 12 hours post administration. […] There were different modes of action by which JCHmLHRH and JC21mLHRH caused cell death.
FIG. 5B is a graph reporting experimental results for cell percentage corresponding to the images of FIG. 5A. Quantification of total cell number and cell viability was determined by trypan blue exclusion after exposure to JCHmLHRH (5 μM) or JC21mLHRH (8 μM) over a 24 h period. The results shown in the graph of FIG. 5B are representative of three individual experiments performed in triplicate (where the horizontal line at approximately 60% in the graph indicates significance at p<0.0001). The data indicates a rapid mode of action was observed by both the real-time imaging and trypan blue staining mechanisms, with nearly 80% cell death after only 6 h of treatment and approximately 100% cell death after the 24 h period.

RFP-PC-3 cells = experiment: Co-culture differential fluorescence, RFP-PC-3 cells; format: cell-based, human; details: JCHmLHRH 5 μM or JC21mLHRH 8 μM, 12 hr
Protocol: In the various experiments described below, unless otherwise noted, co-cultures were prepared and utilized as described by Yates et al. (see Yates C, Shepard C R, Papworth G, Dash A, Beer Stolz D, Tannenbaum S, et al., Novel three-dimensional organotypic liver bioreactor to directly visualize early events in metastatic progression, Adv Cancer Res, 2007; 97:225-46; and Yates C, Shepard C R, Stolz D B, Wells A., Co-culturing human prostate carcinoma cells with hepatocytes leads to increased expression of E-cadherin, Br J Cancer 2007; 96:1246-52), with certain modifications as noted herein. The co-cultures consisted of 50,000 cells/cm^2 of GFP-HS-27a bone marrow stromal cells and 2000 cells/cm^2 of red fluorescent protein PC-3 prostate cancer cells (“RFP-PC-3”), and were maintained in Dulbecco's modified Eagle medium, and cell death was monitored in real-time (as described above) by differential fluorescence. To determine relative intensity, the total intensity area of each image as well as the threshold intensity for each channel was measured utilizing Metamorph Imaging Software (Molecular Devices, Inc., CA), and the significance between the two intensities was then analyzed statistically. All quantitative data was normalized to each control image. […]

PC-3 cells [5] = experiment: PC-3 growth recovery after 24 h peptide pretreatment; format: cell-based, human; details: 24 h pretreatment JCHmLHRH 5 μM or JC21mLHRH 8 μM, 3 days
Protocol: This experiment was performed to determine whether cancerous cells could recover after JCHmLHRH or JC21mLHRH exposure. PC-3 cell cultures were exposed to JCHmLHRH (5 μM) or JC21mLHRH (8 μM) for 24 hours. Growth was measured over a 3-day period. Growth of pre-treatment and post-treatment groups were compared over time.

[6] = test system: PC-3 cells treated with siRNA-LHRH-R; experiment: Peptide sensitivity of PC-3 cells after siRNA-LHRH-R knockdown (trypan blue exclusion); format: cell-based, human; details: 100 nM siRNA-LHRH-R
Protocol: To more firmly establish the significance of the mLHRH sequence on peptide activity, PC-3 cells were treated with siRNA-LHRH at 50 nM and 100 nM concentrations and assayed LHRH levels by immunofluorescence. In this Experiment, PC-3 cells were treated with siRNA-LHRH-R at 50 nM and 100 nM, and compared to control. For this experiment, a total of about 2×10^5 cells, equaling approximately 60-70% confluency, were plated in six-well plates. The LHRH-R siRNA (Santa Cruz, Calif.) was diluted in […] of Opti-MEM (Invitrogen, CA). A […] aliquot of Lipofectamine 2000 (Invitrogen, CA) was diluted in […] of Opti-MEM and incubated for 5 min at room temperature. The diluted siRNA and Lipofectamine 2000 were mixed according to manufacturer's directions and incubated for 20 min at room temperature. The resulting complexes were added to each well and incubated for 24 h. […]
LHRH-R expression was determined by immuno-fluorescence staining with 4′,6-diamidino-2-phenylindole (“DAPI”) utilizing anti-LHRH-R antibody (Lab Vision, CA) and Alexa 488 secondary antibody (Invitrogen, CA).
For purposes of comparison, PC-3 cells were treated with JC21 mLHRH or JCHmLHRH in the presence or absence of 100 nM siRNA-LHRH-R or siRNA-scramble treated cells. Cell viability was determined by trypan blue exclusion, and the results are depicted in the graph of FIG. 3C.

QHWSWGLRPGFALALKALKKALKKLKKALKKAL [JCHmLHRH]
IC50 (LNCaP cells): 4.36 µM and 4.4 µM | effect on hPrEC cell proliferation / toxicity [1]: neither JCHmLHRH nor JC21mLHRH causes appreciable decreases in hPrEC cell proliferation; also recorded: nontoxic | IC50 (DU-145 cells): 4.81 µM and 4.8 µM | IC50 (PC-3 cells [2]): 4.22 µM and 4.4 µM | toxicity to bone marrow stromal cells in co-culture [3]: nontoxic | relative intensity of GFP-HS-27a cells [3]: only decreases slightly

FALALKALKKALKKLKKALKKAL [JCH]
IC50 (PC-3 cells [2]): 6.67 µM

AFKKAFKKAKKAFKKAFKAFAFA [JC21]
IC50 (PC-3 cells [2]): 9.25 µM

mLHRH: modified LHRH binding sequence, tryptophan in place of tyrosine, QHWSWGLRPG (ends and bridges not checked; listed as Homo sapiens)
cell death at higher concentrations (PC-3 cells [2]; mLHRH sequence alone): failed to cause 50% cell death | concentration causing a decrease in cell proliferation of PC-3 cells (as low as) (PC-3 cells [2]; mLHRH sequence alone): 1 µM

QHWSWGLRPGAFKKAFKKAKKAFKKAFKAFAFA [JC21mLHRH]
effect on hPrEC cell proliferation / toxicity [1]: neither JCHmLHRH nor JC21mLHRH causes appreciable decreases in hPrEC cell proliferation; also recorded: nontoxic | morphological changes in cells (PC-3 cells [4]; PC-3 cells, 3 h exposure, real-time imaging): morphological changes | cell death (PC-3 cells [4]; PC-3 cells, JCHmLHRH 5 μM or JC21mLHRH 8 μM, 6 h of treatment): ~80% | cell death (PC-3 cells [4]; PC-3 cells, JCHmLHRH 5 μM or JC21mLHRH 8 μM, after the 24 h period): approximately 100% | mode of cell death observed under microscope (PC-3 cells [4]; PC-3 cells, JCHmLHRH 5 μM or JC21mLHRH 8 μM, time-lapse microscopy): condensing of the cellular and nuclear membrane without bursting | expression of apoptotic marker Annexin V (PC-3 cells [4]; exposed PC-3 cells): did not observe expression of apoptotic marker Annexin V | relative intensity of RFP-PC-3 cells (RFP-PC-3 cells): approaches zero | cell growth after pretreatment (PC-3 cells [5]): completely inhibited cell growth | decrease in sensitivity to peptide on depletion of LHRH levels [6]: 50% | toxicity to bone marrow stromal cells in co-culture [3]: nontoxic | relative intensity of GFP-HS-27a cells [3]: only decreases slightly
